The results in this text go back to PMC8226452, “PESIN Conjugates for Multimodal Imaging: Can Multimerization Compensate Charge Influences on Cell Binding Properties? A Case Study” (Pharmaceuticals, 2021).

Read-outs that look alike come from different tables or passages of the source.

Test in data set [1]: not given
This is another data set of the same source.

Data set [2] is described as follows: logD by partition between n-octanol and aqueous solution at pH 7.4. It is filed as physicochemical. Here is the method: For the ^68Ga-labeled agents [^68Ga]Ga-2, [^68Ga]Ga-3, [^68Ga]Ga-5, and [^68Ga]Ga-6, and the dyes NIR-820 and 1, the logD values were determined by partition experiments between n-octanol and aqueous solution at pH 7.4.
Determination of logD. The n-octanol/water partition coefficient (logD) of [^68Ga]Ga-2, [^68Ga]Ga-3, [^68Ga]Ga-5, and [^68Ga]Ga-6 was determined as previously described. In brief, 5 µL of the respective radiolabeled product solutions were added to a mixture of n-octanol (800 µL) and phosphate buffered solution (0.05 M, pH 7.4, 795 µL) and vigorously shaken for 5 min. After separation of the phases by centrifugation, 100 µL of each phase was taken and measured in a γ-counter.

The target in data set [3] is T1, gastrin-releasing peptide receptor (GRPR) (Homo sapiens, UniProt P30550).
T1 construct: host or cells: HEK-293 (human embryonic kidney) cells, stably GRPR-transfected
The data set can be described thus: Competitive displacement assay with [125I]I-Tyr4-bombesin on stably GRPR-transfected HEK-293 cells. The note with it: 10^5 GRPR-transfected HEK-293 cells per well; radioligand [125I]I-Tyr4-bombesin; 11 competitor concentrations (0.25-500 nM for 5 and 6, 0.1-250 nM for BBN); 1 h at ambient temperature; γ-counting; nonlinear regression; at least three experiments, each in triplicate; read-out: IC50 (GRPR binding affinity).
Method: Human embryonic kidney 293 cells, stably expressing the GRP receptor (GRPR HEK-293 cells), were obtained from Dr. Martin Béhé, Paul Scherrer Institute, Villingen, Switzerland. Cells were cultured using Dulbecco’s modified Eagle’s medium (DMEM, high glucose, GlutaMax-I, 500 mL), geneticin (G418 Sulfate, 50 mg/mL), Opti-MEM I (GlutaMAX I), RPMI 1640 medium and PenStrep from Gibco, fetal calf serum (FCS) from Bio&sell (Feucht, Germany) and Dulbecco’s phosphate buffered saline (PBS), 0.25% Trypsin and 0.02% EDTA solution in PBS from Sigma-Aldrich (Darmstadt, Germany).
Competitive Receptor Binding Assay. The assays were carried out on stably GRPR-transfected HEK-293 cells as described previously [26, 27]. In brief, 50 µL of a cell suspension containing 10^5 cells was seeded in each well of a Millipore 96-well filter plate. […] After one hour of incubation at ambient temperature, the suspension was filtered and the cells washed thrice with cold PBS. The filter was punched out and measured by γ-counting. […] IC50 values were obtained from at least three different experiments, each performed in triplicate.

Where [4] appears, read: shake-flask, n-octanol (800 µL)/phosphate buffered solution (0.05 M, pH 7.4, 795 µL), 5 µL of 68Ga-labeled product solution, shaken 5 min, centrifugation, 100 µL of each phase measured in γ-counter, read-out: logD (n-octanol/water partition coefficient).

T1 sequence (P30550 whole entry, species assumed): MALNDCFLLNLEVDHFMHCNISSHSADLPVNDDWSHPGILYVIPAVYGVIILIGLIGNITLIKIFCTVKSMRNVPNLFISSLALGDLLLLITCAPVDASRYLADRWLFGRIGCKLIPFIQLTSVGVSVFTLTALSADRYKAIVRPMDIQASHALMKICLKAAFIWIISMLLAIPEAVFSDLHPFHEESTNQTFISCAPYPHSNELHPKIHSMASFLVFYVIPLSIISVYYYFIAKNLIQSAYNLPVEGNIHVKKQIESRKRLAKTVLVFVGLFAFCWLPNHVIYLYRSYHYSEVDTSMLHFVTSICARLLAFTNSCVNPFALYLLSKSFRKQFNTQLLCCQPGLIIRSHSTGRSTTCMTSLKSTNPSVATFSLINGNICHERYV

On to `CSCC[C@H](NC(=O)[C@H](CC(C)C)NC(=O)[C@H](Cc1c[nH]cn1)NC(=O)CNC(=O)[C@@H](NC(=O)[C@H](C)NC(=O)[C@H](Cc1c[nH]c2ccccc12)NC(=O)[C@H](CCC(N)=O)NC(=O)CCOCCOCCOCCOCCNC(=O)CO/N=C/c1ccc(C(=O)NCCCN(CCCNC(=O)c2ccc(/C=N/OCC(=O)NCCOCCOCCOCCOCCC(=O)N[C@@H](CCC(N)=O)C(=O)N[C@@H](Cc3c[nH]c4ccccc34)C(=O)N[C@@H](C)C(=O)N[C@H](C(=O)NCC(=O)N[C@@H](Cc3c[nH]cn3)C(=O)N[C@@H](CC(C)C)C(=O)N[C@@H](CCSC)C(N)=O)C(C)C)cc2)CC(=O)N[C@@H](CSC2CC(=O)N(CCN3C(=O)CC(SC[C@H](NC(=O)[C@H](CCCCNC(=O)c4ccc5c(c4)C(C)(C)C(/C=C/C4=C(c6ccccc6)C(=C/C=C6/N(CCCCS(=O)(=O)O)c7ccc(C(=O)O)cc7C6(C)C)/CCC4)=[N+]5CCCCS(=O)(=O)[O-])NC(=O)CC[C@H](C(=O)O)N4CCN(CC(=O)O)CCN(CC(=O)O)CC4)C(N)=O)C3=O)C2=O)C(=O)NCCOCCOCC(=O)O)cc1)C(C)C)C(N)=O` (stereo partly shown), for which the Stokes Shift stood at 20 nm. In data set [1], this compound showed a λmax(em) of 790 nm.
By IC50 is commonly meant the point on the concentration scale where inhibition reaches its midpoint. With `CSCC[C@H](NC(=O)[C@H](CC(C)C)NC(=O)[C@H](Cc1c[nH]cn1)NC(=O)CNC(=O)[C@@H](NC(=O)[C@H](C)NC(=O)[C@H](Cc1c[nH]c2ccccc12)NC(=O)[C@H](CCC(N)=O)NC(=O)CCOCCOCCOCCOCCNC(=O)CO/N=C/c1ccc(C(=O)NCCCN(CCCNC(=O)c2ccc(/C=N/OCC(=O)NCCOCCOCCOCCOCCC(=O)N[C@@H](CCC(N)=O)C(=O)N[C@@H](Cc3c[nH]c4ccccc34)C(=O)N[C@@H](C)C(=O)N[C@H](C(=O)NCC(=O)N[C@@H](Cc3c[nH]cn3)C(=O)N[C@@H](CC(C)C)C(=O)N[C@@H](CCSC)C(N)=O)C(C)C)cc2)CC(=O)N[C@@H](CSC2CC(=O)N(CCN3C(=O)CC(SC[C@H](NC(=O)[C@H](CCCCNC(=O)c4ccc5c(c4)C(C)(C)C(/C=C/C4=C(c6ccccc6)C(=C/C=C6/N(CCCCS(=O)(=O)O)c7ccc(C(=O)O)cc7C6(C)C)/CCC4)=[N+]5CCCCS(=O)(=O)[O-])NC(=O)CC[C@H](C(=O)O)N4CCN(CC(=O)O)CCN(CC(=O)O)CC4)C(N)=O)C3=O)C2=O)C(=O)NCCOCCOCC(=O)O)cc1)C(C)C)C(N)=O` (stereo partly shown) [Compound 5], the “logD (n-octanol/water partition coefficient)” value in data set [2] (shake-flask, n-octanol (800 µL)/phosphate buffered solution (0.05 M, pH 7.4, 795 µL), 5 µL of 68Ga-labeled product solution, shaken 5 min, centrifugation, 100 µL of each phase measured in γ-counter) is listed as −2.2 ± 0.1. Moreover, in data set [3], the IC50 is 59.1 ± 1.49 nM.
With `CC1(C)C(/C=C/C2=C(Cl)C(=C/C=C3\N(CCCCS(=O)(=O)[O-])c4ccc(C(=O)O)cc4C3(C)C)/CCC2)=[N+](CCCCS(=O)(=O)[O-])c2ccc(C(=O)O)cc21.[H+]` [NIR-820, reference compound], the “logD (n-octanol/water partition coefficient)” value in data set [2] (unlabeled dyes, comparable n-octanol/water partition experiments at pH 7.4, HPLC analysis of the phases instead of γ-counting) is reported as −3.3 ± 0.7.
In the case of `CC1(C)C(/C=C/C2=C(c3ccccc3)C(=C/C=C3/N(CCCCS(=O)(=O)O)c4ccc(C(=O)NCCCC[C@H](NC(=O)CC[C@H](C(=O)O)N5CCN(CC(=O)O)CCN(CC(=O)O)CC5)C(=O)N[C@@H](CS)C(N)=O)cc4C3(C)C)/CCC2)=[N+](CCCCS(=O)(=O)[O-])c2ccc(C(=O)O)cc21` [[^68Ga]Ga-2, metal not drawn], the “logD (n-octanol/water partition coefficient)” value in data set [2] (pH 7.4) is −2.6 ± 0.1.
Compound `CC1(C)C(/C=C/C2=C(c3ccccc3)C(=C/C=C3/N(CCCCS(=O)(=O)O)c4ccc(C(=O)NCCCC[C@H](NC(=O)CC[C@H](C(=O)O)N5CCN(CC(=O)O)CCN(CC(=O)O)CC5)C(=O)N[C@@H](CS)C(N)=O)cc4C3(C)C)/CCC2)=[N+](CCCCS(=O)(=O)[O-])c2ccc(C(=O)NCCCC[C@H](NC(=O)CC[C@H](C(=O)O)N3CCN(CC(=O)O)CCN(CC(=O)O)CC3)C(=O)N[C@@H](CS)C(N)=O)cc21` [[^68Ga]Ga-3, metal not drawn] displayed a logD in data set [2] (pH 7.4) of -2.9 ± 0.1.
Take `CSCC[C@H](NC(=O)[C@H](CC(C)C)NC(=O)[C@H](Cc1c[nH]cn1)NC(=O)CNC(=O)[C@@H](NC(=O)[C@H](C)NC(=O)[C@H](Cc1c[nH]c2ccccc12)NC(=O)[C@H](CCC(N)=O)NC(=O)CCOCCOCCOCCOCCNC(=O)CO/N=C/c1ccc(C(=O)NCCCN(CCCNC(=O)c2ccc(/C=N/OCC(=O)NCCOCCOCCOCCOCCC(=O)N[C@@H](CCC(N)=O)C(=O)N[C@@H](Cc3c[nH]c4ccccc34)C(=O)N[C@@H](C)C(=O)N[C@H](C(=O)NCC(=O)N[C@@H](Cc3c[nH]cn3)C(=O)N[C@@H](CC(C)C)C(=O)N[C@@H](CCSC)C(N)=O)C(C)C)cc2)CC(=O)N[C@@H](CSC2CC(=O)N(CCN3C(=O)CC(SC[C@H](NC(=O)[C@H](CCCCNC(=O)c4ccc5c(c4)C(C)(C)C(/C=C/C4=C(c6ccccc6)C(=C/C=C6/N(CCCCS(=O)(=O)O)c7ccc(C(=O)O)cc7C6(C)C)/CCC4)=[N+]5CCCCS(=O)(=O)[O-])NC(=O)CC[C@H](C(=O)O)N4CCN(CC(=O)O)CCN(CC(=O)O)CC4)C(N)=O)C3=O)C2=O)C(=O)NCCOCCOCC(=O)O)cc1)C(C)C)C(N)=O` (stereo partly shown) [[^68Ga]Ga-5, metal not drawn]: in data set [2] (setting [4]), the logD was -2.2 ± 0.1.
In the case of `CSCC[C@H](NC(=O)[C@H](CC(C)C)NC(=O)[C@H](Cc1c[nH]cn1)NC(=O)CNC(=O)[C@@H](NC(=O)[C@H](C)NC(=O)[C@H](Cc1c[nH]c2ccccc12)NC(=O)[C@H](CCC(N)=O)NC(=O)CCOCCOCCOCCOCCNC(=O)CO/N=C/c1ccc(C(=O)NCCCN(CCCNC(=O)c2ccc(/C=N/OCC(=O)NCCOCCOCCOCCOCCC(=O)N[C@@H](CCC(N)=O)C(=O)N[C@@H](Cc3c[nH]c4ccccc34)C(=O)N[C@@H](C)C(=O)N[C@H](C(=O)NCC(=O)N[C@@H](Cc3c[nH]cn3)C(=O)N[C@@H](CC(C)C)C(=O)N[C@@H](CCSC)C(N)=O)C(C)C)cc2)CC(=O)N[C@@H](CSC2CC(=O)N(CCN3C(=O)CC(SC[C@H](NC(=O)[C@H](CCCCNC(=O)c4ccc5c(c4)C(C)(C)C(/C=C/C4=C(c6ccccc6)C(=C/C=C6/N(CCCCS(=O)(=O)O)c7ccc(C(=O)NCCCC[C@H](NC(=O)CC[C@H](C(=O)O)N8CCN(CC(=O)O)CCN(CC(=O)O)CC8)C(=O)N[C@@H](CSC8CC(=O)N(CCN9C(=O)CC(SC[C@H](NC(=O)CN(CCCNC(=O)c%10ccc(/C=N/OCC(=O)NCCOCCOCCOCCOCCC(=O)N[C@@H](CCC(N)=O)C(=O)N[C@@H](Cc%11c[nH]c%12ccccc%11%12)C(=O)N[C@@H](C)C(=O)N[C@H](C(=O)NCC(=O)N[C@@H](Cc%11c[nH]cn%11)C(=O)N[C@@H](CC(C)C)C(=O)N[C@@H](CCSC)C(N)=O)C(C)C)cc%10)CCCNC(=O)c%10ccc(/C=N/OCC(=O)NCCOCCOCCOCCOCCC(=O)N[C@@H](CCC(N)=O)C(=O)N[C@@H](Cc%11c[nH]c%12ccccc%11%12)C(=O)N[C@@H](C)C(=O)N[C@H](C(=O)NCC(=O)N[C@@H](Cc%11c[nH]cn%11)C(=O)N[C@@H](CC(C)C)C(=O)N[C@@H](CCSC)C(N)=O)C(C)C)cc%10)C(=O)NCCOCCOCC(=O)O)C9=O)C8=O)C(N)=O)cc7C6(C)C)/CCC4)=[N+]5CCCCS(=O)(=O)[O-])NC(=O)CC[C@H](C(=O)O)N4CCN(CC(=O)O)CCN(CC(=O)O)CC4)C(N)=O)C3=O)C2=O)C(=O)NCCOCCOCC(=O)O)cc1)C(C)C)C(N)=O` (stereo partly shown) [[^68Ga]Ga-6, metal not drawn], the Stokes Shift worked out at 20 nm. Moreover, the logD in data set [2] (setting [4]) was -1.8 ± 0.1.
